Earlier results as cited in patent US20040096496A1, “Sustained release pharmaceutical composition of a cephalosporin antibiotic” (Orchid Chemicals & Pharmaceuticals Limited, priority 2002, published 2004).

Conditions: background statement, species not given

half-life: 70 min
SMILES: CC=CC1=C(C(=O)O)N2C(=O)[C@@H](NC(=O)[C@H](N)c3ccc(O)cc3)[C@H]2SC1 [Cefprozil]
